{
  "source": "paper PMC7048932",
  "about": "“Examining sterically demanding lysine analogs for histone lysine methyltransferase catalysis” (Scientific Reports, 2020)",
  "target": "T1, G9a (Homo sapiens, UniProt Q96KQ7)",
  "T1 construct": "His6 (N); made in house; host or cells: E. coli BL21 (DE3)pLysS-rosetta",
  "T1 sequence (Q96KQ7 1-1210)": "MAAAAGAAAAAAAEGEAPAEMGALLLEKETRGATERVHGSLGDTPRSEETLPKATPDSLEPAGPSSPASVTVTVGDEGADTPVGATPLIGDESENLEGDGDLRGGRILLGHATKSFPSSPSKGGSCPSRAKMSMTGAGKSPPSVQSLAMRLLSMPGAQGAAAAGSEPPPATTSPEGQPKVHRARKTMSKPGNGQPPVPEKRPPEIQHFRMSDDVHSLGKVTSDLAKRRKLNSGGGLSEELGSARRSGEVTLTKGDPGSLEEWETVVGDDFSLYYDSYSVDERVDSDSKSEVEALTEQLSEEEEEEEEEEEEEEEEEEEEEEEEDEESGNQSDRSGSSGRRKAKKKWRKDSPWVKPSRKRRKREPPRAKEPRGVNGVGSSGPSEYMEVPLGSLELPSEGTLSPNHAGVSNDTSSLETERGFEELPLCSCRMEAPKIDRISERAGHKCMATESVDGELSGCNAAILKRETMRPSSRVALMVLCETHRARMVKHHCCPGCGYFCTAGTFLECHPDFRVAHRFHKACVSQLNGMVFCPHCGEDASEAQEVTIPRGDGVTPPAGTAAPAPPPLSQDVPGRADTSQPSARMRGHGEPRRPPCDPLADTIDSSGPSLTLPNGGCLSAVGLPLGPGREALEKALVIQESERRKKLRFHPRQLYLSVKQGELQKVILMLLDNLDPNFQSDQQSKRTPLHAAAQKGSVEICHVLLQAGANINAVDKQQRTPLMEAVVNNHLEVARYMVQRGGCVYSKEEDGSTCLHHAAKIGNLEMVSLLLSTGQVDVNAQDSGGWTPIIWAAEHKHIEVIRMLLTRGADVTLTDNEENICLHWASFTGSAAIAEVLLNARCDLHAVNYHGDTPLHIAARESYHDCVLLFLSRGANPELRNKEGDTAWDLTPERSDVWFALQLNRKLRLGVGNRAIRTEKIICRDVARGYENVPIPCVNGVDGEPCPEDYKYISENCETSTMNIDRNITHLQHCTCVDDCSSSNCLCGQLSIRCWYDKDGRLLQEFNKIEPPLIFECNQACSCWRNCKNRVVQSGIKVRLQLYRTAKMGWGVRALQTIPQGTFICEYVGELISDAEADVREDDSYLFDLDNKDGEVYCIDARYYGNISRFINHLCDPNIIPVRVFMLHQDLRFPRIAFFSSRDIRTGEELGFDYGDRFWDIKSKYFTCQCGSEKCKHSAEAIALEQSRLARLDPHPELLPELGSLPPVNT",
  "assay": "MALDI-TOF MS methylation assay of H3K9 peptides with G9a",
  "format": "biochemical",
  "conditions": "peptide 100 µM, G9a 2 µM, SAM 500 µM, 1 h, 37 °C",
  "method": "MALDI-MS methyltransferases activity experiments were performed using a Bruker instrument in the reflectron positive mode. For regular methyltransferase standard conditions experiment which carried out in 30 µL total volume, the mixture contains peptide (100 µM), SAM (200 µM), SETD8 or SETD7 (2 µM), in assay buffer 50 mM Tris at optimal pH 8.0. In case of G9a and GLP, similar conditions were used, except (500 µM) of SAM was added to the reaction mixture. Samples were incubated in an Eppendorf vial 1.5 mL using thermomixer for 1 h at 37 °C. A 5 µL aliquot of the solution was mixed with 5 µL of MeOH, after which 5 µL of this mixture was mixed with 5 µL of α-cyano-4-hydroxycinamic acid matrix (CHCA, 5 mg/mL in 125:125 µL acetonitrile/water). The spots were placed on a stainless steel MALDI plate (MS 96 target ground steel BC of Bruker, Germany). The mass corresponding to one monomethylation observed as +14 Da, dimethylation observed as +28 Da and trimethylation observed as +42 Da. The enzymatic activity was determined by taking the peak areas of each methylation state, including all isotopes and adducts, and was annotated using FlexAnalysis software (Bruker Daltonics, Germany). […] Methylated peptide substrates were repeated five times and the unmethylated substrates were triplicated. Sequences of the examined peptides are given in (Supplementary Table 1).",
  "data": [
    {"substance": "ARTKQTAR(Kba9)STGGKA [H3Kba9]", "values": [
      {"measurement": "G9a-catalyzed methylation, result in words", "result": "traces detected"},
      {"measurement": "G9a-catalyzed methylation, result in words", "setting": "listed as H3K ba9", "result": "trace of monomethylation"}
    ]}
  ]
}
